Source: patent US6380262B1, “5-membered ring compounds” (Takara Shuzo Co., Ltd., priority 1998, dated 2002)
Where two headings read alike, the source gives them in different places. Numbered stars: 1 amine (or outer) side, 2 acyl side, 3 side chain; on linkers, the order of the positions; unused ones are H or OH. Bridge positions count the residues as written; N and C are the ends. Square brackets hold non-standard residues; d marks the D form. Peptide text beside a SMILES is read from it. I, II: the chains in the order shown. Actinocin(9to1) = Cc1c2oc3c(C)ccc(C(=O)[*:1])c3nc-2c(C(=O)[*:2])c(N)c1=O; NMeV = CN[C@H](C(=O)O)C(C)C; Sar = CNCC(=O)O

Key:
[1] = system: human influenza virus A1/FM/1/47 (ATCC VR-97); assay: therapeutic effect in mice infected with influenza virus; assay type: in vivo, BALB/c mice; details: control 4 out of 11 died
Description: (24) Therapeutic effects of cyclopentenone and 2-hydroxy-4-glutathion-S-yl-2-cyclopenten-1-one were examined by conducting experiments in which mice were infected with influenza virus.
Each of 4 weeks old female BALB/c mice was intranasally infected with 1×10^4 FFU of human influenza virus A1/FM/1/47 (ATCC VR-97) which had been propagated in a hen's egg.
Immediately after the infection with virus, single dose of 1 mg/kg of cyclopentenone, or 3 mg/kg or 30 mg/kg of 2-hydroxy-4-glutathion-S-yl-2-cyclopenten-1-one was intraperitoneally administered to the mouse infected with influenza virus.
Phosphate buffered saline was administered to control mice.
As a result, 4 out of 11 mice in the control group died by day 16. On the other hand, the numbers of dead mice were only 1 out of 11, 1 out of 11 and 1 out of 10 for the groups administered with 1 mg/kg of cyclopentenone, 3 mg/kg of 2-hydroxy-4-glutathion-S-yl-2-cyclopenten-1-one and 30 mg/kg of 2-hydroxy-4-glutathion-S-yl-2-cyclopenten-1-one, respectively.

[2] = single oral administration to a rat (death); assay type: in vivo; details: single dosage of 1000 mg/kg
Description: No toxicity is observed when a physiologically effective amount of the compound of the present invention or an optical isomer thereof, or a salt thereof is administered.

[3] = system: HL-60 cells; assay: viability by Trypan Blue staining (Viability50); assay type: cell-based; details: Homo sapiens, read-out: Viability50 (concentration that results in a viability of 50%)
Description: (§1) (3) HL-60 cells were cultured at 37° C. in RPMI 1640 medium (Bio Whittaker) containing 10% fetal calf serum (JRH) which had been treated at 56° C. for 30 minutes and suspended in RPMI 1640 medium at a concentration of 2.5×10^5 cells/5 ml.
(§2) 10 μl of one of appropriate dilutions of the hexanoyl GM solutions in 20 mM Tris-HCl buffer or the di-t-butyl GD solution in 70% aqueous ethanol solution was added to 5 ml of the suspension. The mixtures were incubated at 37° C. for 24 hours in the presence of 5% CO2. 10 μl of aqueous actinomycin D (Sigma) solution (0.5 mg/ml), which is known as a reagent that induces apoptosis, was used in place of the sample and the mixture was incubated under the same conditions for confirmation.
Furthermore, a portion of the cells cultured for 24 hours as described above was stained with 0.4% Trypan Blue and examined under an optical microscope. The number of viable cells which were not stained and the number of dead cells which were stained blue were counted. The concentration of each of the samples that results in a viability of 50% (Viability50 μM) was determined. As a result, Viability50 for hexanoyl GM was 9.22 μM and that for di-t-butyl GD was 46.3 μM.

[4] = molecular target: T1, topoisomerase I (Homo sapiens, UniProt P11387); assay: topoisomerase I inhibition, pBR322 DNA relaxation on agarose gel; assay type: biochemical; details: topoisomerase I (TopoGEN), 37° C., 30 minutes
T1 construct: purchased TopoGEN
T1 sequence (P11387 1-765): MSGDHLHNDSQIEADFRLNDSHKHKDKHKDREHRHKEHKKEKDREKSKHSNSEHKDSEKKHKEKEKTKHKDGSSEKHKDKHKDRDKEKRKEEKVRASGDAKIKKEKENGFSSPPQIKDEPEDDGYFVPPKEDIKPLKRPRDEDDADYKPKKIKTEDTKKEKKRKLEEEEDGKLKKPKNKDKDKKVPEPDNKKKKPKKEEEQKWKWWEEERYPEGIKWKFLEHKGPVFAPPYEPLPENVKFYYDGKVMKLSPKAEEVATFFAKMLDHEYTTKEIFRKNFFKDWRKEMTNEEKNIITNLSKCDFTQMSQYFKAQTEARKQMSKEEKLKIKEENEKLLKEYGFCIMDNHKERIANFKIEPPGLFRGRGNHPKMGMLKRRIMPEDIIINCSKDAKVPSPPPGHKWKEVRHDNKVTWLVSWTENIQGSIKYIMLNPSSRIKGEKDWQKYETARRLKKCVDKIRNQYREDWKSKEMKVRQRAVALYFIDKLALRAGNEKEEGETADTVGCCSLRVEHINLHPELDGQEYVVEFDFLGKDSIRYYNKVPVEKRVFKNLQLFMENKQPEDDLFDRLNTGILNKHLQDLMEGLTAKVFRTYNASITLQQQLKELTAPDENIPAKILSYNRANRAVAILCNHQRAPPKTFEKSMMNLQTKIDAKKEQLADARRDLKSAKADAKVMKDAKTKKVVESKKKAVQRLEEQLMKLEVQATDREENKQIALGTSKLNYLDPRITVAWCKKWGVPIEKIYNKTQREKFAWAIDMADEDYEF
Description: (§3) (1) 2 μl of topoisomerase II (TopoGEN; 2 units/μl), 2 μl of 10-fold concentrated buffer [0.5 M Tris-HCl (pH 8.0), 1.2 M KCl, 0.1 M MgCl2, 5 mM adenosine triphosphate, 5 mM dithiothreitol], 2 μl of 0.1% bovine serum albumin (Takara Shuzo), 11 μl of distilled water and 2 μl of distilled water (control) or 2 μl of one solutions of hexanoyl GM adjusted to varying concentrations with water were mixed together. 1 μl of 0.25 μg/μl pBR322 DNA (Takara Shuzo) was added thereto. The resulting mixture was reacted at 37° C. After reacting for 30 minutes, 2 μl of an aqueous solution containing 1% sodium dodecyl sulfate, 50% glycerol and 0.02% Bromophenol Blue was added thereto to stop the reaction.
20 μl of the reaction mixture was applied to 1% agarose gel prepared using agarose L03 (Takara Shuzo) and TAE buffer [40 mM Tris, 5 mM sodium acetate, 1 mM ethylenediaminetetraacetic acid disodium salt; adjusted to pH 7.8 using acetic acid] and electrophoresed in TAE buffer. After electrophoresis, the gel was soaked in a 1 μg/ml aqueous ethidium bromide solution. […]
(2) The activity of inhibiting topoisomerase I of hexanoyl GM was determined as described in Example 3-(1) except that topoisomerase I (TopoGEN; 0.01 unit/μl) was used in place of topoisomerase II and a solution containing 100 mM Tris-HCl (pH 7.9), 10 mM EDTA, 1 mM spermidine and 50% glycerol was used as 10-fold concentrated buffer.

[5] = molecular target: T2, topoisomerase II (Homo sapiens, UniProt P11388); assay: topoisomerase II inhibition, pBR322 DNA relaxation on agarose gel; assay type: biochemical
T2 construct: purchased TopoGEN
T2 sequence (P11388 whole entry): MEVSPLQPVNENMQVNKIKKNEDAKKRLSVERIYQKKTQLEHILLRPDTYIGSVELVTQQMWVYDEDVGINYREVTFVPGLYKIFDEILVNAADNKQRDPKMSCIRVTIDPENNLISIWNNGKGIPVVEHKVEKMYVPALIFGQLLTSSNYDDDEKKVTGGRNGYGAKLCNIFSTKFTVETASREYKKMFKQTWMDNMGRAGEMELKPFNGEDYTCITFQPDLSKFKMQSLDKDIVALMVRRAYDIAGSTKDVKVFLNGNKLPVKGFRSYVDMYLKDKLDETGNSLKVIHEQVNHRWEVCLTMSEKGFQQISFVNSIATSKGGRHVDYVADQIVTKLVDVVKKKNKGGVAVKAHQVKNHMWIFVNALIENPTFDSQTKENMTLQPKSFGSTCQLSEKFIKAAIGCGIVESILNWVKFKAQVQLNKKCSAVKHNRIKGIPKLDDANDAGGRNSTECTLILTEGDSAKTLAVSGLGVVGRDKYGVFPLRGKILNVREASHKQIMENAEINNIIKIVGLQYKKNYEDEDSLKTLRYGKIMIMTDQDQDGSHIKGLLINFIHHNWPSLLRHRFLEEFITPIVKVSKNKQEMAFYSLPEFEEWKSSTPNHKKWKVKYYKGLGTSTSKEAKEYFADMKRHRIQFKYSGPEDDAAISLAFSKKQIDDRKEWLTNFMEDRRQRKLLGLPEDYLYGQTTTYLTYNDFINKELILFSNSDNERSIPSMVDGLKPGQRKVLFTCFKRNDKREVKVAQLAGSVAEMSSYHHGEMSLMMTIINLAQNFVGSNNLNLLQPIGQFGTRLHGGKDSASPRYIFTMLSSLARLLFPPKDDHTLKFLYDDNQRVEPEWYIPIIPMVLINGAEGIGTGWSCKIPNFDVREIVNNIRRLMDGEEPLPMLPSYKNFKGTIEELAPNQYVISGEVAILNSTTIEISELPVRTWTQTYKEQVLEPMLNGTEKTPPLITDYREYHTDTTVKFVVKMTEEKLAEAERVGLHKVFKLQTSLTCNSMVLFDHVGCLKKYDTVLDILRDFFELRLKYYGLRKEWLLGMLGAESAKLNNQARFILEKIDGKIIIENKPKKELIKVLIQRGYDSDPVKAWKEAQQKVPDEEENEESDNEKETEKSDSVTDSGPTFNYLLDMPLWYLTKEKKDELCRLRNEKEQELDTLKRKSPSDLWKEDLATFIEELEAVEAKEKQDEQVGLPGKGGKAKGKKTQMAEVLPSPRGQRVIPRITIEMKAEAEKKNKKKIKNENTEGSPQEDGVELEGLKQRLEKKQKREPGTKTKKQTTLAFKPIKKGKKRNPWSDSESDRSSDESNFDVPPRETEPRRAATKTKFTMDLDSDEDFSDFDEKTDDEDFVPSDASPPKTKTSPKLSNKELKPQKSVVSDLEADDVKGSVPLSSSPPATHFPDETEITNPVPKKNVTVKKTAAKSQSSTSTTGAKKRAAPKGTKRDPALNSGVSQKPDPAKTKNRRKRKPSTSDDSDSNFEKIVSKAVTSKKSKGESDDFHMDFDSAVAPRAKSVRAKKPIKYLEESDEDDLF
Description: as §3
20 μl of the reaction mixture was applied to 1% agarose gel prepared using agarose L03 (Takara Shuzo) and TAE buffer [40 mM Tris, 5 mM sodium acetate, 1 mM ethylenediaminetetraacetic acid disodium salt; adjusted to pH 7.8 using acetic acid] and electrophoresed in TAE buffer. After electrophoresis, the gel was soaked in a 1 μg/ml aqueous ethidium bromide solution. The gel was exposed to ultraviolet rays to visualize the electophoretic pattern of DNA.

[6] = system: HL-60 (ATCC CCL-240) cells; assay: antiproliferation activity against tumor cells and apoptosis induction, MTT measurement system and optical microscope; assay type: cell-based, human; details: for induction of apoptosis (apoptosis corpuscles under an optical microscope): HL-60, 96-well plate culture
Description: (1) 100 μl of a suspension containing HL-60 (ATCC CCL-240) cells in RPMI-1640 medium (Nippon Suisan Kaisha) containing 10% fetal calf serum (Gibco) which had been treated at 56° C. for 30 minutes at a concentration of 5×10^4 cells/ml was dispensed into each well of a 96-well microtiter plate. 10 μl of one of 2-fold serial dilutions with water of 8.3 mM hexanoyl GM solution in 25 mM Tris-HCl buffer was added to the well of the plate. The plate was incubated at 37° C. for 48 hours in the presence of 5% CO2. After the cells were examined under an optical microscope, 10 μl of 5 mg/ml 3-(4,5-dimethylthiazol-2-yl)-2,5-diphenyltetrazolium bromide (MTT; Sigma) solution in phosphate buffered saline was added to the well. The plate was incubated for additional 4 hours. 100 μl of 2-propanol containing 0.04 N HCl was added to the well, the mixture was stirred, and the absorbance at 590 nm was measured.
(2) 10 μl of one of 2-fold serial dilutions with 70% aqueous ethanol solution of 19 mM di-t-butyl GD solution in 70% aqueous ethanol solution was added to each well of a 96-well microtiter plate and air-dried. 100 μl of HL-60 suspension was then dispensed as described above. An apoptosis-inducing activity and an antiproliferation activity against tumor cells were examined using a measurement system using MTT.

[7] = single oral administration to a mouse (death); assay type: in vivo; details: single dosage of 100 mg/kg
[8] = system: HL-60 cells; assay: analysis of DNA fragmentation; assay type: cell-based, human; details: HL-60, 24 hours; actinomycin D 10 μl of 0.5 mg/ml in 5 ml
Description: as §1, §2
(§4) Measurement of apoptotic cells using FACScan as described in Saibo Kogaku, Bessatsu (Cell Technology, Suppl.) Jikken Protocol Series: Apoptosis Jikken Protocol (Experimental Protocol Series: Experimental Protocols for Apoptosis) (Shujun-sha) pp. 129-130 and analysis of DNA fragmentation as described in Bio Manual UP Series: Saishin Apoptosis Jikken-ho (Bio Manual UP Series: Current Experimental Methods for Apoptosis) (Yodo-sha) pp. 61-63 were carried out using cells cultured in the same manner as that described above.

[9] = system: HL-60 cells; assay: measurement of apoptotic cells using FACScan; assay type: cell-based, human; details: HL-60, 24 hours; actinomycin D 10 μl of 0.5 mg/ml in 5 ml
Description: as §1, §2, §4

## N[C@@H](CCC(=O)N[C@@H](CSC1C=C(O)C(=O)C1)C(=O)NCC(=O)O)C(=O)O (stereo partly drawn) [2-hydroxy-4-glutathion-S-yl-2-cyclopenten-1-one]
[1]; 3 mg/kg single intraperitoneal dose immediately after infection
  number of dead mice by day 16: 1 out of 11
[1]; 30 mg/kg single intraperitoneal dose immediately after infection
  number of dead mice by day 16: 1 out of 10
[2]
  death after single oral administration: no death was observed

## CCCCCC(=O)OC1=CC(SC[C@H](NC(=O)CC[C@H](N)C(=O)O)C(=O)NCC(=O)O)CC1=O (stereo partly drawn) [hexanoyl GM, 2-hexanoyloxy-4-glutathion-S-yl-2-cyclopenten-1-one]
[3]; HL-60, 24 hours, 0.4% Trypan Blue
  IC50: 9.22 µM
[2]
  death after single oral administration: no death was observed
[4]
  concentration at which change of DNA from superhelical type to relaxed type was partially inhibited: ≥ 1000 µM
[5]
  selectivity of inhibition, topoisomerase II as compared with topoisomerase I: selective inhibitory activity on topoisomerase II
[5]; topoisomerase II (TopoGEN), pBR322 DNA, 37° C., 30 minutes
  concentration at which change of DNA from superhelical type to relaxed type was partially or completely inhibited: ≥ 100 µM
[6]
  induction of apoptosis (apoptosis corpuscles under an optical microscope): apoptosis corpuscles were observed
[6]; HL-60, 48 hours, MTT, 2-fold serial dilutions of 8.3 mM solution
  final concentration down to which an antiproliferation activity against tumor cells was clearly exhibited: ≥ 6.25 pm

## CC(C)(C)OC1C(=O)CC(SC[C@H](NC(=O)CC[C@H](N)C(=O)O)C(=O)NCC(=O)O)C1OC(C)(C)C (stereo partly drawn) [di-t-butyl GD, 2,3-di-t-butoxy-4-glutathion-S-yl-1-cyclopentanone]
[3]; HL-60, 24 h
  IC50: 46.3 µM
[2]
  death after single oral administration: no death was observed
[6]
  induction of apoptosis (apoptosis corpuscles under an optical microscope): apoptosis corpuscles were observed
[6]; HL-60, MTT, 2-fold serial dilutions of 19 mM solution, air-dried in well
  final concentration down to which an antiproliferation activity against tumor cells was clearly exhibited: ≥ 34 µM

## O=C1C=CC(O)C1O (stereo not drawn) [cyclopentenone, 4,5-dihydroxy-2-cyclopenten-1-one]
[1]; 1 mg/kg single intraperitoneal dose immediately after infection
  number of dead mice by day 16: 1 out of 11
[7]
  death after single oral administration: No death was observed

## Cc1c2oc3c(C)ccc(C(=O)N[C@@H]4C(=O)N[C@H](C(C)C)C(=O)N5CCC[C@H]5C(=O)N(C)CC(=O)N(C)[C@@H](C(C)C)C(=O)O[C@@H]4C)c3nc-2c(C(=O)N[C@@H]2C(=O)N[C@H](C(C)C)C(=O)N3CCC[C@H]3C(=O)N(C)CC(=O)N(C)[C@@H](C(C)C)C(=O)O[C@@H]2C)c(N)c1=O [actinomycin D] (I: T[dV]P[Sar][NMeV] / II: T[dV]P[Sar][NMeV]; ester I:1-I:C, II:1-II:C; linker I:N-II:N via Actinocin(9to1))
[8]
  DNA fragmentation: observed
[9]
  apoptotic cells (FACScan): observed
